# According to patent US20020115661A1, “Method for treating chronic obstructive pulmonary disease” (priority 2000, published 2002):
# Key:
# Solubility = format: physicochemical
# Method: The compound acts as a base, raising the pH of the water to a measured value of 8.9 for a 100 mg/mL solution.
# CI-1034 is insoluble in hexane and isopropanol.
# [1] = test system: rat, dog, monkey, and human hepatocyte preparations; assay: Incubations with hepatocyte preparations; format: in vitro ADME; settings: monkey, and human hepatocytes
# [2] = test system: chronic hypoxia-induced pulmonary hypertension and RV hypertrophy; assay: Pulmonary hypertension and right ventricular hypertrophy in rats exposed to chronic hypoxia; format: in vivo, rat; settings: for average MPAP: hypoxic rats, days 10-20 of hypoxia
# Excerpt: Rats were exposed to hypoxia for an additional 10 days during treatment (20 days total). A separate group of age-matched rats treated with diet alone (20 days) and no exposure to hypoxia served as normoxic controls. Blood samples, pulmonary artery pressures, and cardiac right and left ventricles were collected at the end of the 20-day protocol.
# Rats exposed to 20 days of hypoxia had MPAP of 43±2 mm Hg which averaged 30 mm Hg higher than normal (13±0 mm Hg).
# Heparinized plasma samples were collected approximately 1 hour before MPAP was measured.
# The right ventricular hypertrophic response to hypoxia was estimated by comparing the ratio of right ventricular free wall weight to left ventricle plus septum weight (RV/LV+S) between hypoxic and normoxic control groups. Using this index, rats exposed to hypoxia had right ventricular free walls that were more than twice control (0.57±0.03 versus 0.24±0.1).
# [3] = CI-1034 plasma concentration after oral dose in rats; format: in vivo; settings: rat, 24 hours after 30 mg/kg oral dose
# Excerpt: Vehicle-treated rats responded to the bET-1 challenge with peak increases in mean arterial pressure (MAP) of 58±2 mm Hg (N=7); baseline MAP was 82±5 mm Hg.
# [4] = biological target: T1, human ETA receptor signaling (Homo sapiens, UniProt P25101); assay: ET-1 induced Ca2+ transient (Calcium Green-1) in human pulmonary artery smooth muscle cells; format: cell-based; settings: hPASMC, ET-1 100 nM; read-out: IC50, inhibition of ET-1 Ca2+ response
# T1 construct: endogenous in cells; host or cells: human pulmonary artery smooth muscle cells (hPASMC)
# T1 sequence (P25101 21-427): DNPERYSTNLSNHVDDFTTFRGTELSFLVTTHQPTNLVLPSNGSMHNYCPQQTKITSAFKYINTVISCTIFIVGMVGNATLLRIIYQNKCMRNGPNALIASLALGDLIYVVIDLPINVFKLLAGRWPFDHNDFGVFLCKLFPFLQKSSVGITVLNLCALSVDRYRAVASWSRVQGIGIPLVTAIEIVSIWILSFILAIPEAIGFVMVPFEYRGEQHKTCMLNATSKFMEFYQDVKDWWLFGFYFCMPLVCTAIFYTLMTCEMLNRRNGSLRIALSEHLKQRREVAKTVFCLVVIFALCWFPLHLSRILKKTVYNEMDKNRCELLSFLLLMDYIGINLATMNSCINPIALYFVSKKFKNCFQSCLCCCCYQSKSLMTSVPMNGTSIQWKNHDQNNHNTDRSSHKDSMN
# human ETA receptors = biological target: T2, human ETA receptors (Homo sapiens, UniProt P25101); assay: Saturation binding of [125I]ET-1, Scatchard analysis (Ltk- cell membranes)
# T2 construct: expressed in transfected cells; host or cells: Ltk- cells (mouse fibroblast, thymidine kinase deficient)
# T2 sequence (P25101 21-427): T1 sequence (P25101 21-427)
# dog ETA receptors = biological target: T3, dog ETA receptors (Canis lupus familiaris, UniProt Q5KSU9); assay: [125I]ET-1 binding, membranes from dog cardiac ventricle
# T3 construct: from tissue
# T3 sequence (Q5KSU9 21-426): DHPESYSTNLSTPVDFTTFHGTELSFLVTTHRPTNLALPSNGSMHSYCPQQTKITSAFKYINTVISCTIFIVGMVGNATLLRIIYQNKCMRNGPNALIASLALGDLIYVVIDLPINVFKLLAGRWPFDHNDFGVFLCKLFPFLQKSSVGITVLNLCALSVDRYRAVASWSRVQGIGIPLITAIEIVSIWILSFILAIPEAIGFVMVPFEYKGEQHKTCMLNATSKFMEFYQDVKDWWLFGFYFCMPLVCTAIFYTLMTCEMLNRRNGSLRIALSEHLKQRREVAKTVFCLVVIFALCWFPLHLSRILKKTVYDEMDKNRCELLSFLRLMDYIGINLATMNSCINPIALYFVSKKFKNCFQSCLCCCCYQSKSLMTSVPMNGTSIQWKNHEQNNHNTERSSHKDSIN
# Excerpt: Relative binding activities are given below in TABLE 3.
# [5] = Plasma CI-1034 concentrations in anesthetized dogs; format: in vivo; settings: intravenous, dog; for concentration at 15 min: 15 minutes postdose; for concentration at 30 min: 30 minutes postdose; for concentration at 60 min: 60 minutes postdose
# [6] = test system: acute hypoxia-induced pulmonary hypertension; assay: Pulmonary hypertension in response to acute hypoxia in rats; format: in vivo, rat
# Method: Exposure to hypoxia produces an acute pulmonary hypertensive response in the rat. […] The hypothesis has since been tested through blockade of the hypertensive response with several ET antagonists. The antihypertensive dose of CI-1034 was determined in response to acute hypoxia.
# Heparinized plasma samples were collected 10 minutes after the final MPAP measurement was made.
smiles,measurement,setting,value
"CCc1cc(C2=C(C(=O)[O-])N(c3ccccc3C(F)(F)F)S(=O)(=O)c3ccccc32)cc2c1OCO2.[K+] [CI-1034, 4-(7-Ethyl-1,3-benzodioxol-5-yl)-2-[2-(trifluoromethyl)phenyl]-2H-1 ,2-benzothiazine-3-carboxylic acid 1,1-dioxide monopotassium salt]",solubility,Solubility; 0.05 M pH 4 acetate buffer,very slightly soluble
same,solubility,Solubility; 0.05 M pH 7.4 potassium phosphate buffer,very slightly soluble
same,solubility,Solubility; 0.1N HCl,insoluble
same,pH of aqueous solution,Solubility; 100 mg/mL solution in water,8.9
same,concentration after 24 hours,"Solubility; 0.5 M pH 7.4 potassium phosphate buffer, after 24 hours",approximately 0.8 mg/mL
same,concentration reached on rapid dissolution,"Solubility; 0.5 M pH 7.4 potassium phosphate buffer, initial",approximately 13 mg/mL
same,solubility,Solubility; acetonitrile,slightly soluble
same,solubility,Solubility; chloroform,very slightly soluble
same,solubility,Solubility; dichloromethane,very slightly soluble
same,solubility,Solubility; dimethylsulfoxide,freely soluble
same,solubility,Solubility; ethanol,sparingly soluble
same,solubility,Solubility; hexane,insoluble
same,solubility,Solubility; isopropanol,insoluble
same,solubility,Solubility; methanol,freely soluble
same,solubility,Solubility; tetrahydrofuran,slightly soluble
same,solubility,Solubility; water,freely soluble
same,metabolic profiles across species,[1],qualitatively similar metabolic profiles
same,EC50,"[2]; Rattus norvegicus, simple Emax model, chronic hypoxia, read-out: plasma concentration predicted to produce half-maximal effect",0.32 ± 0.25 µg/mL
same,average MPAP,[2]; 25 mg/kg/day in diet,37±2 mm Hg
same,average MPAP,[2]; 50 mg/kg/day in diet,33±0 mm Hg
same,average MPAP,[2]; 100 mg/kg/day in diet,29±2 mm Hg
same,predicted maximal antihypertensive effect,"[2]; simple Emax model, chronic hypoxia",60%±18%
same,concentration at 24 h,[3],0.16 ± 0.01 µg/mL
same,IC50,[4],0.22 nM
same,Ki,"human ETA receptors; Scatchard analysis, read-out: Ki (inhibitor constant of unlabeled antagonist)",0.51 nM
same,effect on Bmax (maximal [125I]ET-1 binding),human ETA receptors; saturation binding,without significantly affecting
same,effect on apparent Kd of [125I]ET-1 binding,human ETA receptors; saturation binding,reduced
same,IC50,dog ETA receptors,2 nM
same,concentration at 15 min,[5]; 30 mg/kg,221 µg/mL
same,concentration at 30 min,[5]; 30 mg/kg,209 µg/mL
same,concentration at 60 min,[5]; 30 mg/kg,157 µg/mL
same,concentration at 5 min,"[5]; 40 mg/kg, 5 minutes postdose, N = 1",395 µg/mL
same,concentration at 15 min,"[5]; 40 mg/kg, N = 1",327 µg/mL
same,concentration at 30 min,"[5]; 40 mg/kg, N = 1",267 µg/mL
same,concentration at 60 min,"[5]; 40 mg/kg, N = 1",230 µg/mL
same,concentration at 15 min,[5]; 60 mg/kg,427 µg/mL
same,concentration at 30 min,[5]; 60 mg/kg,367 µg/mL
same,concentration at 60 min,[5]; 60 mg/kg,337 µg/mL
same,ED50,"[6]; Rattus norvegicus, rats, PO, relative to hypoxic control, read-out: ED50, inhibition of acute pulmonary hypertensive response",0.8 mg/kg
same,EC50,"[6]; Rattus norvegicus, simple Emax model, acute hypoxia, read-out: plasma concentration predicted to produce half-maximal effect",0.03 ± 0.03 µg/mL
same,reduction of peak pulmonary hypertensive response at 4 hours,"[6]; rats, 0.3 mg/kg PO 30 minutes before hypoxia (10% O2)",34%±1%
same,reduction of peak pulmonary hypertensive response at 4 hours,"[6]; rats, 3.0 mg/kg PO 30 minutes before hypoxia (10% O2)",70%±3%
same,predicted maximal antihypertensive effect,"[6]; simple Emax model, acute hypoxia",81%±23%
